Source: a compilation of properties of binary mixtures (doi:10.1016/j.jct.2020.106232)

Assay: xn = mol fraction of the nth substance listed
Details: 100 kPa

Work on `CCCCCO` + CCCC[n+]1ccn(C)c1.O=[N+]([O-])[O-] yielded a viscosity (293.15 K, x2 = 0) of 4.03 mPa·s, a viscosity (303.15 K, x2 = 0) of 3.04 mPa·s and a viscosity (313.15 K, x2 = 0) of 2.33 mPa·s. The viscosity (323.15 K, x2 = 0) was 1.81 mPa·s.
Compound `CCCC[n+]1ccn(C)c1.O=[N+]([O-])[O-]` + CCCCCO has a viscosity (293.15 K, x1 = 0.0824) of 5.32 mPa·s, a viscosity (293.15 K, x1 = 0.1538) of 6.83 mPa·s and a viscosity (293.15 K, x1 = 0.2318) of 8.87 mPa·s. It also gave a viscosity (293.15 K, x1 = 0.3425) of 13.1 mPa·s, a viscosity (293.15 K, x1 = 0.6481) of 40.3 mPa·s and a viscosity (293.15 K, x1 = 0.8416) of 94.9 mPa·s. The viscosity (293.15 K, x1 = 0.9415) was 160 mPa·s, the viscosity (293.15 K, x1 = 1) was 224 mPa·s and the viscosity (303.15 K, x1 = 0.0824) was 3.84 mPa·s. It also gave a viscosity (303.15 K, x1 = 0.1538) of 4.88 mPa·s, a viscosity (303.15 K, x1 = 0.2318) of 6.36 mPa·s and a viscosity (303.15 K, x1 = 0.3425) of 9.46 mPa·s. For the same compound, the viscosity (303.15 K, x1 = 0.4363) was 13.2 mPa·s, the viscosity (303.15 K, x1 = 0.5668) was 21 mPa·s and the viscosity (303.15 K, x1 = 0.6481) was 28.1 mPa·s. It also gave a viscosity (303.15 K, x1 = 0.7481) of 41 mPa·s, a viscosity (303.15 K, x1 = 0.8416) of 59.8 mPa·s and a viscosity (303.15 K, x1 = 0.9415) of 94 mPa·s. It also gave a viscosity (303.15 K, x1 = 1) of 125 mPa·s, a viscosity (313.15 K, x1 = 0.0824) of 2.94 mPa·s and a viscosity (313.15 K, x1 = 0.1538) of 3.59 mPa·s. For the same compound, the viscosity (313.15 K, x1 = 0.2318) was 4.68 mPa·s, the viscosity (313.15 K, x1 = 0.3425) was 6.76 mPa·s and the viscosity (313.15 K, x1 = 0.4363) was 9.14 mPa·s. For the same compound, the viscosity (313.15 K, x1 = 0.5668) was 14 mPa·s, the viscosity (313.15 K, x1 = 0.7481) was 27 mPa·s and the viscosity (313.15 K, x1 = 1) was 75.1 mPa·s. It also gave a viscosity (323.15 K, x1 = 0.1538) of 2.69 mPa·s, a viscosity (323.15 K, x1 = 0.2318) of 3.38 mPa·s and a viscosity (323.15 K, x1 = 0.3425) of 4.63 mPa·s. The viscosity (323.15 K, x1 = 0.4363) was 6.19 mPa·s, the viscosity (323.15 K, x1 = 0.5668) was 9.37 mPa·s and the viscosity (323.15 K, x1 = 0.6481) was 12.31 mPa·s. It also gave a viscosity (323.15 K, x1 = 0.7481) of 17.3 mPa·s, a viscosity (323.15 K, x1 = 0.8416) of 24.3 mPa·s and a viscosity (323.15 K, x1 = 1) of 45.2 mPa·s.
